Measurements as given in patent US5798379A, “UCS1025 compounds” (Kyowa Hakko Kogyo Co., Ltd., priority 1996, dated 1998).
Values after ≈ are worked out from the molar mass of the structure shown.

Legend:
[1] = test system: Bacillus subtilis No. 10707; assay: Antibacterial activity by agar dilution method; type: cell-based; conditions: pH 7, read-out: Minimum inhibitory concentration
Protocol: (§1) Antibacterial activity of UCS1025A and UCS1025B against various bacteria were measured.
(§2) The antibacterial activity was measured by an agar dilution method on media (pH 7) -composed of 3 g/L of Bacto-tryptone (manufactured by Difco), 3 g/L of meat extract, 1 g/L of yeast extract, 1 g/L of glucose and 16 g/L of agar. The antibacterial activity was shown by minimum inhibitory concentration (MIC).

[2] = test system: Enterococcus hirae ATCC 10541; assay: Antibacterial activity by agar dilution method; type: cell-based; conditions: ATCC10541, pH 7, read-out: Minimum inhibitory concentration
Protocol: as §1, §2

[3] = test system: Proteus vulgaris ATCC 6897; assay: Antibacterial activity by agar dilution method; type: cell-based; conditions: ATCC6897, pH 7, read-out: Minimum inhibitory concentration
Protocol: as §1, §2

[4] = test system: Staphylococcus aureus ATCC 6538P; assay: Antibacterial activity by agar dilution method; type: cell-based; conditions: ATCC6538P, pH 7, read-out: Minimum inhibitory concentration
Protocol: as §1, §2

[5] = test system: human mammary carcinoma MCF-7; assay: Growth inhibition against human mammary carcinoma MCF-7 cells (MTT); type: cell-based; conditions: MCF7, 72 hours
Protocol: (§3) Growth inhibition against human mammary carcinoma MCF-7, human cystocarcinoma T24, human epidermoid carcinoma A431 and human renal carcinoma ACHN cells:
(§4) Respective cells were dispensed into a 96 well microtiter plate (Nunc #167008) in 1×10^3 cells/well portions in the case of MCF-7 and T24 or in 1.5×lO^3 cells/well portions in the case of A431 and ACHN and cultured at 37° C. for 24 hours in a 5% carbon dioxide incubator. Thereafter, 30 mM of UCS1025A and 30 mM of UCS1025B were each serially diluted and added to the wells in 50 μl portions. The final concentration of each solution becomes 100 μM at the maximum at this stage. They were cultured again at 37° C. for 72 hours in the 5% carbon dioxide incubator. Five hours prior to the completion of the culturing, MTT [3-(4,5-dimethylthiazo-2-yl)-2,5-diphenyltetrazolium bromide, Sigma] which had been dissolved in the culture to a final concentration of 1 mg/ml was dispensed into the plate in 50 μl/well portions. After completion of the culturing, DMSO was dispensed in 150 μl/well portions, and the resulting plate was stirred vigorously using a plate mixer to dissolve MTT-formazan crystals completely. Thereafter, absorbance at 550 nm was measured using a microplate spectrophotometer M-SPmax250 (manufactured by Wako Pure Chemical Industries). The cell growth inhibition activity was shown by the 50% inhibitory concentration IC50

human cystocarcinoma T24 = assay: Growth inhibition against human cystocarcinoma T24 cells (MTT); type: cell-based; conditions: T-24, 72 hours
Protocol: as §3, §4

[6] = test system: human epidermoid carcinoma A431; assay: Growth inhibition against human epidermoid carcinoma A431 cells (MTT); type: cell-based; conditions: A-431, 72 hours
Protocol: as §3, §4

[7] = test system: human renal carcinoma ACHN; assay: Growth inhibition against human renal carcinoma ACHN cells (MTT); type: cell-based; conditions: 72 hours
Protocol: as §3, §4

Solubility = type: physicochemical
[8] = in methanol, ethyl acetate, chloroform, dimethylsulfoxide (DMSO)

For `CC1C=CC2CCCCC2C1C(=O)C1C(=O)N2CCC3C(=O)OC1C32O` (centres unmarked) [UCS1025A], the MIC [1] was 1.3 µg/mL (≈ 3.62 µM), the MIC [2] was 1.3 µg/mL (≈ 3.62 µM) and the MIC [3] was 5.2 µg/mL (≈ 14.5 µM). The MIC [4] was 1.3 µg/mL (≈ 3.62 µM), the IC50 [5] was 21 µM and the IC50 (human cystocarcinoma T24) was 51 µM. The IC50 [6] was 55 µM, the IC50 [7] was 58 µM and the Solubility (Solubility; in hexane) was “hardly soluble”. The Solubility (Solubility; [8]) was “Soluble”.
In the case of `CC1C=CC2CCCCC2C1C(=O)C1(O)C(=O)N2CCC3C(=O)OC1C32O` (centres unmarked) [UCS1025B], the MIC [1] is reported as 83 µg/mL (≈ 221 µM), the MIC [2] is reported as 42 µg/mL (≈ 112 µM) and the MIC [3] is reported as 83 µg/mL (≈ 221 µM). It also gave an MIC [4] of 42 µg/mL (≈ 112 µM), an IC50 [5] greater than 100 µM and an IC50 (human cystocarcinoma T24) greater than 100 µM. For the same compound, the IC50 [6] was greater than 100 µM, the IC50 [7] was greater than 100 µM and the Solubility (Solubility; in hexane) was “hardly soluble”. For the same compound, the Solubility (Solubility; [8]) was “Soluble”.
